These results are taken from patent publication US10899753B2, “Inhibiting agents for Bruton's tyrosine kinase” (BIOGEN MA INC., priority 2018, dated 2021).

Assay [1] addresses T1, BTK (Homo sapiens (Human), UniProt Q06187). The experiment in a line: In Vitro BTK Kinase Assay: BTK-POLYGAT-LS ASSAY. In kind it is biochemical. Particulars: fluorescein-labeled polyGAT peptide 100 nM, BTK enzyme 0.25 nM, 30 minutes, TRF. An outline of the steps: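 ATP […] and polyGAT peptide (100 nM), final concentrations, in Tris-HCl pH 7.5 kinase buffer with MgCl2, DTT, Triton X-100 and casein. Reaction run 30 min, stopped with EDTA, then 45 min at room temperature.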

Assay [2] deals with T1, BTK. Briefly: In Vitro PD Assay in Human Whole Blood (pBTK assay). The format is cell-based. Particulars: human heparinized whole blood, 37° C. for 30 min, total BTK capture and phosphotyrosine detection (ECL). An outline of the steps: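 Heparinized human venous whole blood spiked with serially diluted compound (0.1% DMSO final) and incubated 30 min at 37° C. Lysed with protease/phosphatase inhibitors (high control +PPi, low control −PPi lacking phosphatase inhibitors); total BTK captured and phosphotyrosine detected.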

T1 sequence (Q06187 whole entry): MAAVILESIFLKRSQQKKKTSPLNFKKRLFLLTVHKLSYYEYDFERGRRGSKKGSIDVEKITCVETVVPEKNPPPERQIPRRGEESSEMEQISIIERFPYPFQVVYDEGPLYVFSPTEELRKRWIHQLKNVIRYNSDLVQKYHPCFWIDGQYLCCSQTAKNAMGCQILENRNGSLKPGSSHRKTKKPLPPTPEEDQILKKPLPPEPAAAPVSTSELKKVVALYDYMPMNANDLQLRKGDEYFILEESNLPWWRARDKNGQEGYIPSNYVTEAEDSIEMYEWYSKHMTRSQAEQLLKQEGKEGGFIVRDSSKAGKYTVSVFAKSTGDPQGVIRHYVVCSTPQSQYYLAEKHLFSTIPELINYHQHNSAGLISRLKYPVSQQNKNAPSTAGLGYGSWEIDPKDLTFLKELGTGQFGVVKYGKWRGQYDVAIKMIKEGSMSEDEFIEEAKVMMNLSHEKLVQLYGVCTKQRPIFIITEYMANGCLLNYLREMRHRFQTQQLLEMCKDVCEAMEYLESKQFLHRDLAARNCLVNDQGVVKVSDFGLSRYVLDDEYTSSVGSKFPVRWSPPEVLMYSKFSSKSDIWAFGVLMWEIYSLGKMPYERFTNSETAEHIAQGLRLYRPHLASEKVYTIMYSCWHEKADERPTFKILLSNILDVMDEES

In general, IC50 refers to the midpoint of a concentration-inhibition curve. The low end stands for greater potency, the high end for weaker potency. Regarding `Cc1c(CNC(=O)c2ncc(C(C)(C)C)o2)ccc(-c2ncnc(Nc3cnn(C)c3)n2)c1F` [Compound 31, 5-(tert-butyl)-N-(3-fluoro-2-methyl-4-(4-((1-methyl-1H-pyrazol-4-yl)amino)-1,3,5-triazin-2-yl)benzyl)oxazole-2-carboxamide], the figures for the IC50 against BTK [1] and against BTK [2] were < 1 nM and 500 to 10000 nM, respectively.

Turning to `Cc1cc(-c2ncnc(Nc3ccn(C)n3)n2)ccc1CNC(=O)c1cnc(C(C)(C)C)o1` [Compound 3, 2-(tert-butyl)-N-(2-methyl-4-(4-((1-methyl-1H-pyrazol-3-yl)amino)-1,3,5-triazin-2-yl)benzyl)oxazole-5-carboxamide], the results for the half-inhibitory concentration (IC50) against BTK [1] and on BTK [2] were 1 to 10 nM and 500 to 10000 nM, respectively.

On to `Cc1c(-c2ncnc(Nc3cnn(C)c3)n2)ccc([C@@H](C)NC(=O)c2noc(C(C)(C)C)n2)c1Cl` [Compound 77, (R)-5-(tert-butyl)-N-(1-(2-chloro-3-methyl-4-(4-((1-methyl-1H-pyrazol-4-yl)amino)-1,3,5-triazin-2-yl)phenyl)ethyl)-1,2,4-oxadiazole-3-carboxamide], for which the IC50 was < 1 nM on BTK [1] and 100 to 500 nM at BTK [2].

On to `Cc1cc(-c2ncnc(Nc3cnn(C)c3)n2)ccc1CNC(=O)c1nnn(C(C)(C)C)n1` [Compound 39, 2-(tert-butyl)-N-(2-methyl-4-(4-((1-methyl-1H-pyrazol-4-yl)amino)-1,3,5-triazin-2-yl)benzyl)-2H-tetrazole-5-carboxamide], for which the IC50 at BTK [1] is < 1 nM; against BTK [2], < 100 nM.

As to `Cc1cc(-c2ncnc(Nc3cnn(C)c3)n2)c(F)cc1CNC(=O)c1nc(C(C)(C)C)no1` [Compound 57, 3-(tert-butyl)-N-(5-fluoro-2-methyl-4-(4-((1-methyl-1H-pyrazol-4-yl)amino)-1,3,5-triazin-2-yl)benzyl)-1,2,4-oxadiazole-5-carboxamide], the IC50 on BTK [1] is < 1 nM; on BTK [2] it was 100 to 500 nM.

In the case of `Cc1c(CNC(=O)c2noc(C(C)(C)CF)n2)ccc(-c2ncnc(Nc3ccn(C)n3)n2)c1F` [Compound 45, N-(3-fluoro-2-methyl-4-(4-((1-methyl-1H-pyrazol-3-yl)amino)-1,3,5-triazin-2-yl)benzyl)-5-(1-fluoro-2-methylpropan-2-yl)-1,2,4-oxadiazole-3-carboxamide], the IC50 on BTK [1] is < 1 nM; against BTK [2] it was 100 to 500 nM.

With `Cc1cc(-c2ncnc(Nc3cnn(C)c3)n2)c(F)cc1CNC(=O)c1cnn(C(C)(C)C)c1` [Compound 61, 1-(tert-butyl)-N-(5-fluoro-2-methyl-4-(4-((1-methyl-1H-pyrazol-4-yl)amino)-1,3,5-triazin-2-yl)benzyl)-1H-pyrazole-4-carboxamide], the results for the IC50 at BTK [1] and on BTK [2] were < 1 nM and 100 to 500 nM, respectively.

Take `Cc1c(CNC(=O)c2noc(C3(C)CC3)n2)ccc(-c2ncnc(Nc3cnn(C)c3)n2)c1F` [Compound 32, N-(3-fluoro-2-methyl-4-(4-((1-methyl-1H-pyrazol-4-yl)amino)-1,3,5-triazin-2-yl)benzyl)-5-(1-methylcyclopropyl)-1,2,4-oxadiazole-3-carboxamide]: the figures for the IC50 against BTK [1] and at BTK [2] were < 1 nM and < 100 nM, respectively.

Turning to `Cn1ccc(Nc2ncnc(-c3ccc(CNC(=O)c4nc(C(C)(C)C)no4)c(C4CC4)c3F)n2)n1` [Compound 55, 3-(tert-butyl)-N-(2-cyclopropyl-3-fluoro-4-(4-((1-methyl-1H-pyrazol-3-yl)amino)-1,3,5-triazin-2-yl)benzyl)-1,2,4-oxadiazole-5-carboxamide], the IC50 against BTK [1] was < 1 nM; against BTK [2] it was 500 to 10000 nM.

With `C[C@@H](NC(=O)c1noc(C(C)(C)C)n1)c1ccc(-c2ncnc(Nc3ccn(C)n3)n2)c(F)c1Cl` [Compound 101, (R)-5-(tert-butyl)-N-(1-(2-chloro-3-fluoro-4-(4-((1-methyl-1H-pyrazol-3-yl)amino)-1,3,5-triazin-2-yl)phenyl)ethyl)-1,2,4-oxadiazole-3-carboxamide], the IC50 at BTK [1] was < 1 nM; at BTK [2] it was 500 to 10000 nM.

In the case of `Cn1cc(Nc2ncnc(-c3ccc4c(c3)CCCC[C@H]4NC(=O)c3nc(C(C)(C)C)no3)n2)cn1` [Compound 34, 3-tert-butyl-N-[(5R)-2-[4-[(1-methylpyrazol-4-yl)amino]-1,3,5-triazin-2-yl]-6,7,8,9-tetrahydro-5H-benzo[7]annulen-5-yl]-1,2,4-oxadiazole-5-carboxamide], the IC50 at BTK [1] is < 1 nM; against BTK [2] it was < 100 nM.

With `Cn1ccc(Nc2ncnc(-c3cc4c(cc3F)[C@H](NC(=O)c3noc(C(C)(C)C)n3)CCCC4)n2)n1` [Compound 84, (R)-5-(tert-butyl)-N-(3-fluoro-2-(4-((1-methyl-1H-pyrazol-3-yl)amino)-1,3,5-triazin-2-yl)-6,7,8,9-tetrahydro-5H-benzo[7]annulen-5-yl)-1,2,4-oxadiazole-3-carboxamide], the half-maximal inhibitory concentration (IC50) is < 1 nM on BTK [1] and 100 to 500 nM on BTK [2].

In the case of `Cn1ccc(Nc2ncnc(-c3ccc4c(c3)CN(C3COC3)CC[C@H]4NC(=O)c3coc(C(C)(C)C)n3)n2)n1` [Compound 94, (R)-2-(tert-butyl)-N-(8-(4-((1-methyl-1H-pyrazol-3-yl)amino)-1,3,5-triazin-2-yl)-2-(oxetan-3-yl)-2,3,4,5-tetrahydro-1H-benzo[c]azepin-5-yl)oxazole-4-carboxamide], the figures for the IC50 against BTK [1] and against BTK [2] were 1 to 10 nM and 100 to 500 nM, respectively.

As for `Cn1cc(Nc2ncnc(-c3ccc4c(c3F)CCCC[C@H]4NC(=O)c3noc(C(C)(C)C)n3)n2)cn1` [Compound 88, (R)-5-(tert-butyl)-N-(1-fluoro-2-(4-((1-methyl-1H-pyrazol-4-yl)amino)-1,3,5-triazin-2-yl)-6,7,8,9-tetrahydro-5H-benzo[7]annulen-5-yl)-1,2,4-oxadiazole-3-carboxamide], the IC50 against BTK [1] was < 1 nM; against BTK [2], < 100 nM.

For `Cc1cc(-c2ncnc(Nc3cnn(C)c3)n2)ccc1CNC(=O)c1cc(C(C)(C)C)no1` [Compound 108, 3-(tert-butyl)-N-(2-methyl-4-(4-((1-methyl-1H-pyrazol-4-yl)amino)-1,3,5-triazin-2-yl)benzyl)isoxazole-5-carboxamide], the IC50 at BTK [1] was < 1 nM; on BTK [2] it was 100 to 500 nM.

Regarding `Cc1c([C@@H](C)NC(=O)c2noc(C(C)(C)C)n2)ccc(-c2ncnc(Nc3ccn(C)n3)n2)c1F` [Compound 71, (R)-5-(tert-butyl)-N-(1-(3-fluoro-2-methyl-4-(4-((1-methyl-1H-pyrazol-3-yl)amino)-1,3,5-triazin-2-yl)phenyl)ethyl)-1,2,4-oxadiazole-3-carboxamide], the figures for the IC50 at BTK [1] and at BTK [2] were < 1 nM and 100 to 500 nM, respectively.

As to `Cc1c([C@@H](C)NC(=O)c2nc(C(C)(C)C)no2)ccc(-c2ncnc(Nc3cnn(C)c3)n2)c1F` [Compound 74, (R)-3-(tert-butyl)-N-(1-(3-fluoro-2-methyl-4-(4-((1-methyl-1H-pyrazol-4-yl)amino)-1,3,5-triazin-2-yl)phenyl)ethyl)-1,2,4-oxadiazole-5-carboxamide], the IC50 was < 1 nM at BTK [1] and < 100 nM against BTK [2].

On to `Cc1cc(-c2ncnc(Nc3cnn(C)c3)n2)ccc1CNC(=O)c1nc(C(C)(C)C)no1` [Compound 12, 3-(tert-butyl)-N-(2-methyl-4-(4-((1-methyl-1H-pyrazol-4-yl)amino)-1,3,5-triazin-2-yl)benzyl)-1,2,4-oxadiazole-5-carboxamide], for which the IC50 was < 1 nM against BTK [1] and 100 to 500 nM on BTK [2].

With `Cc1cc(-c2ncnc(Nc3cnn(C)c3)n2)c(F)cc1CNC(=O)c1nc(C2(CF)CC2)no1` [Compound 60, N-(5-fluoro-2-methyl-4-(4-((1-methyl-1H-pyrazol-4-yl)amino)-1,3,5-triazin-2-yl)benzyl)-3-(1-(fluoromethyl)cyclopropyl)-1,2,4-oxadiazole-5-carboxamide], the IC50 against BTK [1] is < 1 nM; against BTK [2], 100 to 500 nM.

With `Cn1ccc(Nc2ncnc(-c3ccc4c(c3F)CCCC[C@H]4NC(=O)c3coc(C(C)(C)C)n3)n2)n1` [Compound 112, (R)-2-(tert-butyl)-N-(1-fluoro-2-(4-((1-methyl-1H-pyrazol-3-yl)amino)-1,3,5-triazin-2-yl)-6,7,8,9-tetrahydro-5H-benzo[7]annulen-5-yl)oxazole-4-carboxamide], the 50% inhibitory concentration (IC50) against BTK [1] was < 1 nM; at BTK [2] it was 500 to 10000 nM.
